In ChEMBL document CHEMBL1122716, “cis-1,3,4,6,7,11b-Hexahydro-2-methyl-7-phenyl-2H-pyrazino[2,1-a] isoquinoline: a new atypical antidepressant” (J Med Chem, 1984):

Test: Binding affinity towards histamine receptor by inhibiting specific binding of [3H]-mepyramine (3 nM) in vitro to membranes of rat brain without cerebellum
Format: cell membranes

IC50 | SMILES
> 10000 nM | c1ccc(CCN2CCN3CC(c4ccccc4)c4ccccc4C3C2)cc1 (centres undefined)
2000 nM | CN(C)CC1NCC(c2ccccc2)c2ccccc21 (centres undefined)
190 nM | CN1CCN2CC(c3ccc(O)cc3)c3ccccc3C2C1 (centres undefined)
> 10000 nM | c1ccc(C2CN3CCNCC3c3ccccc32)cc1 (centres undefined)
680 nM | COc1ccc(C2CN3CCN(C)CC3c3ccccc32)cc1 (centres undefined)
380 nM | CN1CCN2CC(c3ccc(Cl)cc3)c3ccccc3C2C1 (centres undefined)
> 10000 nM | c1ccc(CN2CCN3CC(c4ccccc4)c4ccccc4C3C2)cc1 (centres undefined)
> 10000 nM | CCCCCCN1CCN2CC(c3ccccc3)c3ccccc3C2C1 (centres undefined)
280 nM | CCN1CCN2CC(c3ccccc3)c3ccccc3C2C1 (centres undefined)
520 nM | CN1CCN2CC(c3ccc([N+](=O)[O-])cc3)c3ccccc3C2C1 (cis isomer)
> 10000 nM | CCCN1CCN2CC(c3ccccc3)c3ccccc3C2C1 (cis isomer)
860 nM | CN1CCN2CC(c3ccc(N)cc3)c3ccccc3C2C1 (cis isomer)
> 10000 nM | CCCCN1CCN2CC(c3ccccc3)c3ccccc3C2C1 (cis isomer)
> 10000 nM | CN(C)CC1c2ccccc2C(c2ccccc2)CN1C (cis isomer)
5000 nM | CCNCC1NCC(c2ccccc2)c2ccccc21 (cis isomer)
40 nM | CN1CCN2CC(c3ccccc3)c3ccccc3C2C1 (single isomer, unassigned; (-))
3500 nM | CNCC1NCC(c2ccccc2)c2ccccc21 (stereo in doubt; 4a)
170 nM | CNCC1NCC(c2ccccc2)c2ccccc21 (stereo in doubt; 5)
60 nM | CN1CCN2CC(c3ccccc3)c3ccccc3C2C1 (stereo in doubt; 7a)
2800 nM | CN1CCN2CC(c3ccccc3)c3ccccc3C2C1 (stereo in doubt; 10)
> 10000 nM | CN1CCN2CC(c3ccccc3)c3ccccc3C2C1 (trans isomer)
30 nM | CN(C)CCCN1c2ccccc2CCc2ccccc21 [IMIPRAMINE]
14 nM | CN1CCN2c3ccccc3Cc3ccccc3C2C1 (centres undefined) [MIANSERIN]

SMILES | IC50
CN1CCN2CC(c3ccc([N+](=O)[O-])cc3)c3ccc([N+](=O)[O-])cc3C2C1 (cis isomer) | > 10000 nM
